Results as given in PubChem BioAssay AID2060484 (Molecular Pharmacology Branch, DTP, NCI, 2025).

Tested on: SUM149PT spheroids with HUVEC/MSC, viability
Assay: Anticancer human tumor SUM149PT cell line growth inhibition [GQUAD];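 further: spheroids exposed to drugs for seven days before readout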;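 on viability, T/C: percent viability relative to DMSO vehicle control taken as 100%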
Conditions: for IC50: curve of first compound; for viability, T/C: stronger effect = lower value
Summary of the method: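 Multi-cell-type spheroids of tumor cells with HUVEC and mesenchymal stem cells, treated with drug combinations. Concentrations descend in half-log steps from near clinical Cmax, or from 10 microM where Cmax is unknown; viability read-out.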

[1] = second compound 0.0316 µM, first compound 0.0316 µM
[2] = second compound 0.0316 µM, first compound 0.1 µM
[3] = second compound 0.0316 µM, first compound 0.316 µM
[4] = second compound 0.0316 µM, first compound 1 µM
[5] = second compound 0.0316 µM, first compound 3.16 µM
[6] = second compound 0.0316 µM, first compound 10 µM
[7] = second compound 0.1 µM, first compound 0.0316 µM
[8] = second compound 0.1 µM, first compound 0.1 µM
[9] = second compound 0.1 µM, first compound 0.316 µM
[10] = second compound 0.1 µM, first compound 1 µM
[11] = second compound 0.1 µM, first compound 3.16 µM
[12] = second compound 0.1 µM, first compound 10 µM
[13] = second compound 0.316 µM, first compound 0.0316 µM
[14] = second compound 0.316 µM, first compound 0.1 µM
[15] = second compound 0.316 µM, first compound 0.316 µM
[16] = second compound 0.316 µM, first compound 1 µM
[17] = second compound 0.316 µM, first compound 3.16 µM
[18] = second compound 0.316 µM, first compound 10 µM
[19] = second compound 1 µM, first compound 0.0316 µM
[20] = second compound 1 µM, first compound 0.1 µM
[21] = second compound 1 µM, first compound 0.316 µM
[22] = second compound 1 µM, first compound 1 µM
[23] = second compound 1 µM, first compound 3.16 µM
[24] = second compound 1 µM, first compound 10 µM
[25] = second compound 3.16 µM, first compound 0.0316 µM
[26] = second compound 3.16 µM, first compound 0.1 µM
[27] = second compound 3.16 µM, first compound 0.316 µM
[28] = second compound 3.16 µM, first compound 1 µM
[29] = second compound 3.16 µM, first compound 3.16 µM
[30] = second compound 3.16 µM, first compound 10 µM
[31] = second compound 10 µM, first compound 0.0316 µM
[32] = second compound 10 µM, first compound 0.1 µM
[33] = second compound 10 µM, first compound 0.316 µM
[34] = second compound 10 µM, first compound 1 µM
[35] = second compound 10 µM, first compound 3.16 µM
[36] = second compound 10 µM, first compound 10 µM

## COc1cc(C2c3cc4c(cc3C(OC3OC5COC(C)OC5C(O)C3O)C3COC(=O)C23)OCO4)cc(OC)c1O (stereo unspecified) + Cc1cnc(CNC(=O)c2c(=O)c3ccc(N4CCCN(C)CC4)nc3n3c2sc2ccccc23)cn1
Second compound 0.0316 µM
  IC50: 0.365 µM
Second compound 0.1 µM
  IC50: 0.304 µM
Second compound 0.316 µM
  IC50: 0.125 µM
Second compound 1 µM
  IC50: < 0.0316 µM
Second compound 3.16 µM
  IC50: < 0.0316 µM
Second compound 10 µM
  IC50: < 0.0316 µM
[1]
  viability, T/C: 82.8%
[2]
  viability, T/C: 59.1%
[3]
  viability, T/C: 48.2%
[4]
  viability, T/C: 45.8%
[5]
  viability, T/C: 27.3%
[6]
  viability, T/C: 13.3%
[7]
  viability, T/C: 67.7%
[8]
  viability, T/C: 52.1%
[9]
  viability, T/C: 52.5%
[10]
  viability, T/C: 42%
[11]
  viability, T/C: 24%
[12]
  viability, T/C: 11.5%
[13]
  viability, T/C: 57.8%
[14]
  viability, T/C: 47.4%
[15]
  viability, T/C: 44.5%
[16]
  viability, T/C: 40.1%
[17]
  viability, T/C: 25.6%
[18]
  viability, T/C: 12.4%
[19]
  viability, T/C: 45.7%
[20]
  viability, T/C: 45.9%
[21]
  viability, T/C: 42.2%
[22]
  viability, T/C: 39%
[23]
  viability, T/C: 24.5%
[24]
  viability, T/C: 13.4%
[25]
  viability, T/C: 39.5%
[26]
  viability, T/C: 38.1%
[27]
  viability, T/C: 35.6%
[28]
  viability, T/C: 39.6%
[29]
  viability, T/C: 24.9%
[30]
  viability, T/C: 14.3%
[31]
  viability, T/C: 0.14%
[32]
  viability, T/C: 12.2%
[33]
  viability, T/C: 31.4%
[34]
  viability, T/C: 19%
[35]
  viability, T/C: 1.9%
[36]
  viability, T/C: 3.26%

## CCCS(=O)(=O)Nc1ccc(F)c(C(=O)c2c[nH]c3ncc(-c4ccc(Cl)cc4)cc23)c1F + Cc1[nH]c2ccc(F)cc2c1-c1nc2c3cccnc3c3ncccc3c2[nH]1
Second compound 0.0316 µM
  IC50: > 10 µM
Second compound 0.1 µM
  IC50: > 10 µM
Second compound 0.316 µM
  IC50: > 10 µM
Second compound 1 µM
  IC50: 9.08 µM
Second compound 3.16 µM
  IC50: 8.19 µM
Second compound 10 µM
  IC50: 7.25 µM
[1]
  viability, T/C: 107%
[2]
  viability, T/C: 97.7%
[3]
  viability, T/C: 109%
[4]
  viability, T/C: 101%
[5]
  viability, T/C: 74.7%
[6]
  viability, T/C: 53.3%
[7]
  viability, T/C: 102%
[8]
  viability, T/C: 105%
[9]
  viability, T/C: 102%
[10]
  viability, T/C: 99.8%
[11]
  viability, T/C: 82.6%
[12]
  viability, T/C: 54.9%
[13]
  viability, T/C: 110%
[14]
  viability, T/C: 104%
[15]
  viability, T/C: 105%
[16]
  viability, T/C: 102%
[17]
  viability, T/C: 78.9%
[18]
  viability, T/C: 51.2%
[19]
  viability, T/C: 103%
[20]
  viability, T/C: 107%
[21]
  viability, T/C: 105%
[22]
  viability, T/C: 105%
[23]
  viability, T/C: 79.6%
[24]
  viability, T/C: 47.3%
[25]
  viability, T/C: 98.3%
[26]
  viability, T/C: 92.7%
[27]
  viability, T/C: 102%
[28]
  viability, T/C: 109%
[29]
  viability, T/C: 71.3%
[30]
  viability, T/C: 45.6%
[31]
  viability, T/C: 98.1%
[32]
  viability, T/C: 104%
[33]
  viability, T/C: 102%
[34]
  viability, T/C: 105%
[35]
  viability, T/C: 74.6%
[36]
  viability, T/C: 40.4%

## C#Cc1c(F)ccc2cc(O)cc(-c3ncc4c(N5CC6CCC(C5)N6)nc(OCC56CCCN5CC(F)C6)nc4c3F)c12 (stereo unspecified) + Cc1[nH]c2ccc(F)cc2c1-c1nc2c3cccnc3c3ncccc3c2[nH]1
Second compound 0.0316 µM
  IC50: 4.72 µM
Second compound 0.1 µM
  IC50: 5.52 µM
Second compound 0.316 µM
  IC50: 3.77 µM
Second compound 1 µM
  IC50: 5.38 µM
Second compound 3.16 µM
  IC50: 5.61 µM
Second compound 10 µM
  IC50: 3.43 µM
[1]
  viability, T/C: 103%
[2]
  viability, T/C: 96.5%
[3]
  viability, T/C: 93%
[4]
  viability, T/C: 72%
[5]
  viability, T/C: 57.6%
[6]
  viability, T/C: 38.4%
[7]
  viability, T/C: 106%
[8]
  viability, T/C: 98.9%
[9]
  viability, T/C: 94.7%
[10]
  viability, T/C: 87.2%
[11]
  viability, T/C: 54.8%
[12]
  viability, T/C: 44.2%
[13]
  viability, T/C: 110%
[14]
  viability, T/C: 96.5%
[15]
  viability, T/C: 83.8%
[16]
  viability, T/C: 74.6%
[17]
  viability, T/C: 48.5%
[18]
  viability, T/C: 37%
[19]
  viability, T/C: 95%
[20]
  viability, T/C: 90%
[21]
  viability, T/C: 87.3%
[22]
  viability, T/C: 76.5%
[23]
  viability, T/C: 55.9%
[24]
  viability, T/C: 42.6%
[25]
  viability, T/C: 96.9%
[26]
  viability, T/C: 85.2%
[27]
  viability, T/C: 83.7%
[28]
  viability, T/C: 76.2%
[29]
  viability, T/C: 52.9%
[30]
  viability, T/C: 45%
[31]
  viability, T/C: 102%
[32]
  viability, T/C: 82.3%
[33]
  viability, T/C: 88.2%
[34]
  viability, T/C: 60.2%
[35]
  viability, T/C: 52.2%
[36]
  viability, T/C: 35.6%
